According to patent US11903927B2, “Combination treatment of cancer” (Scandion Oncology A/S, priority 2016, dated 2024):
Where two headings read alike, the source gives them in different places.

Legend:
[1] = test system: human HT29 colon cancer cell line; test: HT29 colon tumour xenograft; assay type: in vivo; conditions: mice; NS3728 80 mg/kg PO, paclitaxel 5 mg/kg IP, 5-flourouracil 30 mg/kg IP, alone or combined; dosing days 4-8, 11-15, 18-22
Method: The in vivo antitumor effect of NS3728 on the human HT29 colon cancer cell line were tested as monotherapy (80 mg/kg) respectively in combination with paclitaxel (5 mg/kg) or 5-flourouracil (30 mg/kg) in two independent experimental series. NS3728 was given per oral (PO), whereas both paclitaxel and 5-flourouracil were dosed intraperitoneally (IP) by injection.
The dosing occurred in periods (days 4-8; days 11-15, days 18-22) with daily dosing of both NS3728 and cytotoxic drug, interrupted by dosing holidays.

[2] = test system: VRAC; conditions: read-out: IC50 as VRAC blocker; cited from earlier work
[3] = test system: docetaxel resistant MCF-7 breast cancer cells; test: MTT cell viability, docetaxel resistant MCF-7; assay type: cell-based, human; conditions: 72 hours
Text: (§1) Breast cancer is a heterogenous disease and at least 6 subtypes of breast cancer have been described previously by Soerlie et al (PMID: 11553815). As a major difference, breast cancer can be divided into hormone (estrogen and progesterone) receptor positive and hormone receptor negative breast cancer. We have in our experiments included these two major subtypes. We established human breast cancer cell lines that are resistant to the chemotherapy docetaxel as described in Hansen et al 2015 (PMID: 25596703). These cell lines are MCF-7 and MDA-MB-231.
(§2) Subsequently, NS3728, docetaxel or combinations of the two drugs were added for 72 hours before cell viability was determined. […] Each data point was carried out in triplicate.

[4] = test system: Docetaxel resistant MDA-MB-231 breast cancer cells; test: MTT cell viability, docetaxel resistant MDA-MB-231; assay type: cell-based, human
Text: as §1, §2

[5] = test system: fulvestrant-resistant MCF-7/LCC9 cells; test: MTT cell viability, fulvestrant resistant MCF-7/LCC9; assay type: cell-based, human
Method: These cell lines are MCF-7/LCC2. We also established human breast cancer cell lines that are resistant to the anti-estrogen Fulvestrant as described in Brünner et al 1997 (PMID: 9270017). MCF-7 is an estrogen and progesterone receptor positive cell line.
as §2

[6] = test system: LoVo parental cells
Method: (§5) The cells were seeded in 96-well plates (10,000 cells/well) and allowed to adhere for 24 hours. Subsequently, NS3728, OXP, SN-38 or combinations of NS3728 with one of the cytotoxic drugs were added for 48 hours before cell viability was determined. All values are expressed in percentage of untreated cells (named: “no treatment”). “DMSO” refers to the solvent control as both NS3728 and chemotherapeutic drugs are diluted in DMSO. Thus, the DMSO (Dimethyl sulfoxide) control is included to investigate any potential effect on cell viability by the organic solvent. Each data point was carried out in triplicate.

[7] = test system: HT29 parental cells
Method: as §5

[8] = test system: cancer cells; conditions: in vitro; cited from earlier work
[9] = test system: SN-38 resistant LoVo CRC cancer cells
Method: (§6) The cells were seeded in 96-well plates (10,000 cells/well) and allowed to adhere for 24 hours. Subsequently, NS3728, OXP, SN-38 or combinations of the drugs were added for 48 hours before cell viability was determined. All values are expressed in percentage of untreated cells (named: “no treatment”). “DMSO” refers to the solvent control as both NS3728 and chemotherapeutic drugs are diluted in DMSO. Thus, the DMSO (Dimethyl sulfoxide) control is included to investigate any potential effect on cell viability by the organic solvent. Each data point was carried out in triplicate.

[10] = test system: C6 glioma cells; test: C6 glioma subcutaneous air sac (SAS) model; assay type: in vivo, rat; conditions: 2.5 million C6 cells on air sac membrane; NS3728 40 mg/kg/day oral, temozolomide 5 mg/kg/day, alone or combined; 10 days of treatment
Method: In the second study the tumour growth was retarded by inoculating only half the number of cells (2.5 million of C6 cells per animal) and making use of the subcutaneous air sac (SAS) technique. In brief, the rats were anaesthetized with CO2/O2 and 10-15 ml of air was introduced dorsally by subcutaneous injections to produce an air sac located approximately 4-5 cm behind the head. The wall of the air sac became progressively thicker with time and after 10-14 days a sufficient lining of cells with the appearance of a transparent membrane had been established. The C6 glioma cells were inoculated in the rats directly on the membrane. The treatment was started at the day of inoculation and the study was terminated on day 10 of treatment.

[11] = test system: SN-38 resistant HT29 CRC cancer cells
Method: as §6

[12] = test system: HCT116 parental cells
Method: as §5

[13] = test system: tamoxifen-resistant MCF-7/LCC2 cells; test: MTT cell viability, tamoxifen resistant MCF-7/LCC2; assay type: cell-based, human; conditions: 40 μM NS3728, 72 hours
Method: These cell lines are MCF-7/LCC2. We also established human breast cancer cell lines that are resistant to the anti-estrogen Fulvestrant as described in Brünner et al 1997 (PMID: 9270017). MCF-7 is an estrogen and progesterone receptor positive cell line. […] Subsequently, NS3728, docetaxel or combinations of the two drugs were added for 72 hours before cell viability was determined. […] Each data point was carried out in triplicate.

[14] = test system: oxaliplatin resistant HT29 CRC cancer cells; test: MTT cell viability, oxaliplatin resistant HT29; assay type: cell-based, human
Method: (§3) These cell lines are HCT116, HT29 and LoVo.
(§4) Each data point was carried out in triplicate.

[15] = Method: The in vivo anti-tumor effect of NS3728 on C6 glioma cells given either as monotherapy (40 mg/kg/day) or in combination with temozolomide (Temodal, 25 or 5 mg/kg/day) was tested in two separate experiments, using either the xenograft method or the subcutaneous air sac model (SAS; see Lichtenberg, J., P. J. Hjarnaa, P. E. Kristjansen, D. Hansen & L. Binderup: The rat subcutaneous air sac mode: A quantitative assay of antiangiogenesis in induced vessels Pharmacology & Toxicology, 1999, 84, 34-40).
In the first study 5 million C6 rat glioma cells were inoculated into the flank of Fisher rats.

[16] = test system: SN-38 resistant HCT116 CRC cancer cells; test: MTT cell viability, SN-38 resistant HCT116; assay type: cell-based, human
Method: as §3, §4

[17] = test system: SN-38 resistant LoVo CRC cancer cells; test: cells; conditions: Homo sapiens, 48 h, read-out: cell viability
Method: as §6

SMILES: O=c1[nH]cc(F)c(=O)[nH]1 [5-flourouracil, 5-fluorouracil]
- tumour volume growth curves [1]: mild (non-significant) depression of the growth curves

SMILES: O=S(=O)(O)c1cc(N=C=S)ccc1C=Cc1ccc(N=C=S)cc1S(=O)(=O)O [DIDS]
- IC50 [2]: 26 µM

SMILES: CC(=O)O[C@@]12CO[C@@H]1C[C@H](O)[C@@]1(C)C(=O)[C@H](O)C3=C(C)[C@@H](OC(=O)[C@H](O)[C@@H](NC(=O)OC(C)(C)C)c4ccccc4)C[C@@](O)([C@@H](OC(=O)c4ccccc4)[C@H]21)C3(C)C [Docetaxel, docetaxel, reference compound]
- cell viability ([3]; 65 nM Docetaxel monotherapy): did not decrease cell viability
- cell viability ([4]; 150 nM Docetaxel, 72 hours): about 50 % of untreated controls

SMILES: C[C@]12CC[C@@H]3c4ccc(O)cc4C[C@@H](CCCCCCCCC[S+]([O-])CCCC(F)(F)C(F)(F)F)[C@H]3[C@@H]1CC[C@@H]2O (stereo partly drawn) [Fulvestrant, fulvestrant, reference compound]
- cell viability ([5]; 1 μM Fulvestrant, 72 hours): no effect on the cell viability

SMILES: O=C(O)c1cc([N+](=O)[O-])ccc1NCCCc1ccccc1 [NPPB]
- IC50 [2]: 21 µM

SMILES: O=C(Nc1cccc(C(F)(F)F)c1)Nc1ccc(Br)cc1-c1nnn[nH]1 [NS3623]
- IC50 [2]: 1.8 µM

SMILES: O=C(Nc1cc(C(F)(F)F)cc(C(F)(F)F)c1)Nc1ccc(Br)cc1-c1nnn[nH]1 [NS3728]
- IC50 [2]: 0.4 µM
- cell viability ([3]; 40 μM NS3728 monotherapy): did not decrease cell viability
- cell viability ([6]; 40 μM NS3728, 48 hours): about 45 % of untreated cells
- cell viability ([6]; 50 μM NS3728, 48 hours): about 38 % of untreated cells
- cell viability ([7]; 40 μM NS3728, 48 hours): about 90 % of untreated cells
- cell viability ([7]; 50 μM NS3728, 48 hours): about 77 % of untreated cells
- inhibition of cisplatin mediated apoptosis [8]: inhibit cisplatin mediated apoptosis
- cell viability ([9]; 30 μM NS3728, 48 hours): about 80 % of untreated cells
- cell viability ([9]; 50 μM NS3728, 48 hours): about 50 % of untreated cells
- tumour growth inhibition as measured by tumour weight [10]: significant inhibition of tumour growth
- cell viability ([11]; 30 μM NS3728, 48 hours (increased viability)): about 120 % of untreated cells
- cell viability ([11]; 40 μM NS3728, 48 hours): no effect on cell viability
- cell viability ([11]; 50 μM NS3728, 48 hours): about 85 % of untreated cells
- cell viability ([12]; 40 μM NS3728, SN-38 experiment, 48 hours): about 50 % of untreated cells
- cell viability ([12]; 50 μM NS3728, SN-38 experiment, 48 hours): about 50 % of untreated cells
- cell viability ([12]; NS3728 alone in the OXP experiment (concentration not given in the sentence), 48 hours): about 50 % of untreated cells
- cell viability [13]: 70 % of untreated control
- cell viability ([14]; 20 μM NS3728, 48 hours): about 85 % of untreated cells
- cell viability ([4]; 50 μM NS3728, 72 hours): did not decrease cell viability
- tumour growth rate / anti-tumor effect ([15]; 5 million C6 cells, flank of Fisher rats, NS3728 40 mg/kg/day oral, temozolomide 25 mg/kg/day, alone or combined, terminated day 4 of treatment): neither NS3728 (40 mg/kg/day) nor temozolomide (25 mg/kg/day) exhibited any significant anti-tumor effect
- cell viability ([16]; 30 μM NS3728, 48 hours): about 85 % of untreated cells
- viability at 40 µM [17]: ~57%
- tumour volume growth curves [1]: mild (non-significant) depression of the growth curves
- cell viability ([5]; 40 μM NS3728, 72 hours): 60 % of untreated control

SMILES: O=C(Nc1ccc([N+](=O)[O-])cc1)Nc1ccc(Br)cc1-c1nnn[nH]1 [NS3749]
- IC50 [2]: 1.4 µM

SMILES: O=C1[O][Pt]2([NH][C@@H]3CCCC[C@H]3[NH]2)[O]C1=O [OXP, oxaliplatin, reference compound]
- cell viability ([12]; OXP alone, 48 hours): dose-dependently decreased cell viability

SMILES: CCc1c2c(nc3ccc(O)cc13)-c1cc3c(c(=O)n1C2)COC(=O)[C@]3(O)CC [SN-38, reference compound]
- cell viability ([6]; 0.0064 μM SN-38, 48 hours): about 53 % of untreated cells
- cell viability ([7]; 0.032 μM SN-38, 48 hours): about 77 % of untreated cells
- cell viability ([9]; 0.16 μM SN-38, 48 hours): about 78 % of untreated cells
- cell viability ([11]; 0.8 μM SN-38, 48 hours): about 78 % of untreated cells
- cell viability ([12]; 0.16 μM SN-38, 48 hours): about 50 % of untreated cells
- cell viability ([14]; 0.1 μM SN-38, 48 hours): about 43 % of untreated cells
- cell viability ([16]; 4 μM SN-38, 48 hours): almost no effect on cell viability

SMILES: CC(=O)O[C@H]1C(=O)[C@@]2(C)[C@H]([C@H](OC(=O)c3ccccc3)[C@]3(O)C[C@H](OC(=O)[C@H](O)[C@@H](NC(=O)c4ccccc4)c4ccccc4)C(C)=C1C3(C)C)[C@]1(OC(C)=O)CO[C@@H]1C[C@@H]2O [paclitaxel]
- tumour volume growth curves [1]: mild (non-significant) depression of the growth curves

SMILES: Cn1nnc2c(C(N)=O)ncn2c1=O [temozolomide, reference compound]
- signs of toxicity (subdued behaviour, hunched appearance, loss of body weight) ([15]; all animals treated with temozolomide 25 mg/kg/day): Clear signs of toxicity
